Entries after “also recorded” stand apart in the source; their conditions may differ.
How the values were obtained:
CHO-K1 cells = experiment: CHO-K1 cell proliferation assay; conditions: unformulated alkyl esters, 48 hour incubation; for Effect on cell proliferation: concentration with detectable inhibition: 0.195 μM-25 μM
Method: CHG-K1 cells were harvested when the cell monolayer was 50-90% confluent (use passage 4-11). Media was aspirated out of the flask, and cells were rinsed with 2 mL of F12 media. Next, 1 mL of pre-warmed (37° C.) 0.25%o trypsin-EDTA (Life Technologies, Cat#: 25300054) was added, and cells were dislodged from the flask by tapping it on the side. Complete growth media (F12 (Life Technologies, Cat #: 31765092) +10%FBS (Hyclone, Cat #: SH30071.03)+1× Pen-Strep (Life Technologies, cat #15140-122) was then added at a volume of 10 mL. Cells were eentrifuged at 250×g for 5 minutes at room temperature, and the media was aspirated. The cell pellet was resuspended in 10 ml. complete growth media. Cell number was determined using a hemacytometer. Ceils were then seeded at 2000 cells per well of a 96-well plate in 100 μL of complete growth media. The plate was incubated overnight at 37° C. and 5% CO2 in a water-jacketed incubator.
The next day, 80 μL of fresh complete media was added to each well, and CHO—K1 cells were challenged with treprostinil compound and composition treatments. The working solutions were prepared at 10× concentration, and following 2 fold serial dilutions, 20 μL aliquots were added per well to arrive at a final 1× concentration. Following a 48 hour incubation at 37° C. and 5% CO2 in a water-jacketed incubator, the inhibitory effect on cell proliferation was determined. Plates were analyzed using 20 μL of Presto Blue reagent (Life Technologies, cat #: A13262) per well. The reagent was mixed, and plates were incubated for 1 hour at 37° C. and 5% CO2 in a water-jacketed incubator. Plates were read using either a CytoFluor Series 4000 (PerSeptive BioSystems) or Synergy Neo microplate reader (BioTek) with emission λ: 590 nm and excitation λ: 560 nm.
Following a 48 hour incubation period, the inhibitory effect of the treprostinil derivative compositions on cell proliferation was determined.
CHO—K1 cells were challenged with treprostinil alkyl esters, i.e., TR compounds of Formula (A), having the following R2 groups: • C2, C3, C4, C5, C6, C8, C10 or C12 straight chain alkyl, at dosages ranging from 0.098 μM to 25 μM, Following a 48 hour incubation period, the inhibitory effect on cell proliferation was determined.
Following a 72 hour incubation period, the inhibitory effect on cell proliferation was determined. Following a 48 hour incubation period, the inhibitory effect on cell proliferation was determined.
Similarly, CHG-K1 cells were challenged with the treprostinil compositions T612 (R2═C2), T613 (R2═C8) at concentrations ranging from 1.41 μM to 180 μM.

NR8383 cells = experiment: NR8383 cell proliferation assay; format: cell-based, rat; conditions: unformulated alkyl esters, 72 hour incubation; for Effect on cell proliferation: 0.195 μM-25 μM
Method: Rat alveolar NR8383 cells were harvested when the monolayer was 50-90% confluent (use passage 5-11). Because the NR8383 cells include both adherent and non-adherent cells, media was transferred to a 50 mL Falcon tube. To obtain the cells remaining in the flask, 2 mL of plain media was added, and the remaining cells were scraped out of the 75 cm^2 flask with a cell scraper and added to the 50 mL tube. […] SH30071.03) […] Technologies, cat #: 15410-122)). Cell number was determined using a hemacytometer. […] Measurements and calculations were made as described above for the CHO-K1 cells.

esterase = experiment: Esterase mediated conversion of treprostinil compounds to treprostinil; format: in vitro ADME; conditions: 37° C., up to 1 hr
Method: A set of studies was conducted to determine the conversion kinetics to treprostinil of linear treprostinil compounds versus various branched treprostinil compounds. 0.4 mM of linear C8-TR or branched treprostinil compounds 2-dimethyl-1-propanyl-TR, 3,3-dimethyl-1-butanyl-TR, 2-ethyl-1-butanyl-TR, 5-nonanyl-TR, or 3-pentanyl-TR (see below for structures) were incubated with 0.2 U esterase at 37° C. for 1 hour, and the conversion (% of total) was calculated at 0.25, 0.5, 0.75, or 1 hour incubation time. • C8-TR (i.e., the compound of Formula (A) wherein R2=
The conversion is relative to the C8-TR compound and conversion was measured at 1 hr. post esterase incubation, • C8-TR (i.e., the compound of Formula (A) wherein R2=
Conversion was measured at 1 hr. post esterase incubation. • 4C7-TR (i.e., the compound of Formula (A) wherein R2=

EP2 prostanoid receptor = target: T1, EP2 prostanoid receptor (Homo sapiens, UniProt P43116); experiment: GloSensor cAMP assay in CHO-K1 cells co-transfected with the EP2 receptor; format: cell-based
T1 construct: host or cells: CHO-K1 cells, transiently co-transfected with pGloSensor-22F cAMP plasmid and pGEM-3Zf(+)
T1 sequence (P43116 whole entry): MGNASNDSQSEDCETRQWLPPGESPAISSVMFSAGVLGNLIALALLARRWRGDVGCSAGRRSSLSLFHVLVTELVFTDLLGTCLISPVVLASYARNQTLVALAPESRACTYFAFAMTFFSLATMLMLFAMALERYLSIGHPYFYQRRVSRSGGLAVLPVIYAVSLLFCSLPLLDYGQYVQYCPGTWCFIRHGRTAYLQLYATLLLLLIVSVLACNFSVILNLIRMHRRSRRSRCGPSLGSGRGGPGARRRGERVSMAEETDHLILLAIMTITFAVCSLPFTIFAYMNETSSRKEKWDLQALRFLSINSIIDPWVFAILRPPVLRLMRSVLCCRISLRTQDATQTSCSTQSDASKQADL
Excerpt: cAMP is a second messenger involved in signal transduction of G-protein coupled receptors (GPCRs) acting through Ga-s and Ga-i proteins. Because the treprostinil receptor is a GPCR, the assay provides an indication of whether the respective prostacyclin compound (or metabolite thereof) binds its receptor and activates the GPCR cell signaling cascade. The GloSensorTM assay harnesses a genetically modified form of firefly luciferase into which a cAMP-binding protein moiety has been inserted. Upon binding of cAMP, a conformational change is induced leading to increased light output. The EP2 prostanoid receptor was co-transfected with the GloSensorTM plasmid (Promega) into CHG-K1 cells as follows. CHO-K1 cells were harvested when the monoloayer was at 50-90% confluence. First, cells were washed with 5 mL PBS. […] The media was aspirated, and the cell pellet was resuspended in 10 mL of growth media. Cell number was determined using a hemacytometer. Each well of a culture treated 96 […] bottom plate (Costar, Cat #: 3917) was seeded with 1×10^4 cells per 100 μL antibiotic-free growth media. […] For small scale transfections of up to 20 wells, the pGLoSensor-22F cAMP plasmid (Promega, Cat #: E2301) (2 μg): (EP2) (10 ng) (Origene, Cat #: SC126558) : pGEM-3Zf(+) (10 ng) (Promega, Cat #: P2271) ratio was diluted to a final concentration of 12.6 ng/μL (total plasmid) in Opti-MEM I reduced-serum medium (Life Technologies, Cat #: 1985062). Next, 6 μL of FuGENE HD transfection reagent (Promega, Cat #: E2311) was added to 160 μL of diluted plasmid and mixed carefully by gentle pipetting. The complex was incubated at room temperature for 0 to 10 minutes, and then 8 μL of the complex was added per well of a 96 well white assay plate (Costar, Cat #: 3917) and gently mixed without disturbing the cell monolayer. […] Following incubation, cells were treated and analyzed. For larger scale transfections, the aforementioned steps were scaled up accordingly, and cells were frozen following the last incubation. In order to prepare frozen transfected CHO-K1 cells, the media was aspirated from culture flasks and cells were rinsed with 5 mL PBS. […] Cell number was determined using a hemacytometer. The media was aspirated, and the cell pellet was resuspended in freezing media (Millipore, cat #: S-002-5F) at 2.5×10^6 cells/vial. Transfected cells were incubated overnight at -80° C. before transfer to liquid nitrogen for long term storage. […] In preparation for cAMP measurement, the cells were equilibrated with the GloSensor cAMP reagent prior to treatment. For equilibration, the medium was carefully removed from the individual well. Next, 100 μL of equilibration medium (6% v/v of Glosensor Reagent stock solution (Promega, Cat #: E291), 10% FBS (Hyclone, Cat #: SH30071.03) and 88% CO2 independent medium (Life Technologies, Cat #: 18045088)) was added per well of the 96-well plate, and added to the side of each well. The plate was then incubated for 2 hours at room temperature. A first pre-read measurement was taken using a microplate reader (MicroLumat Plus). Plates were incubated for an additional 10 minutes at room temperature, followed by a second pre-read measurement. […] Following treatment, each plate was read every 5 minutes for the duration of the assay using a microplate reader (MicroLumat Plus). In order to determine the fold change in cAMP relative to the control, the transfection efficiency was first determined by dividing the second pre-read measurement by the average of the corresponding pre-read measurements. Next, the normalized relative light units (RLUs) of the samples were determined by dividing the plate read measurement by the transfection efficiency. The fold change in cAMP relative to the control was then determined by dividing the normalized RLU of the samples by the normalized RLU of the control. […] Results from the three highest concentrations are provided at FIG. 3A (10 μM), FIG. 3B (1 μM) and FIG. 3C (0.1 μM). […]

[1] = Particle size characterization of treprostinil compositions (QELS); format: physicochemical; conditions: particles of compositions comprising the alkyl ester (FIG. 2)
Method: All particle size measurements were performed using a Wyatt Technology Mobius™ Zeta Potential/ Particle Sizing Instrument in Quasi-elastic light scattering (QELS) mode. Composition aiiquots were diluted 10-fold in pre-filtered (0.02 μm pore filter) ultrapure of deionized H2O. Light scattering data was collected and converted into particle size and size distribution using Dynamics® v. […] Reported average particle size diameter is based on the cumulants model, which mathematically fits particle diffusion constants (determined by the raw scattering intensities of particles in a suspension) to obtain the particle size mean and a distribution of particle sizes around the mean diameter.
Particle uniformity was determined using the software-calculated polydispersity (% PD). Polydispersity is defined as the standard deviation of the particle size distribution from the mean particle size value. % PD normalizes the polydispersity to the mean diameter by dividing by the mean size and multiplylng by 100. These parameters indicate whether a particle suspension has one or more size populations of particles (monomodal versus multimodal). […]
Dynamics® polydispersity parameter represents a monodisperse population of particles if % PD≦15. A calculated % PD≧57% represents a polydisperse population of particles.

Molecule: CCCCC[C@H](O)CC[C@@H]1[C@H]2Cc3cccc(OCC(=O)OCC)c3C[C@H]2C[C@H]1O [C2-TR, treprostinil ethyl ester]
- Effect on cell proliferation: concentration with detectable inhibition (CHO-K1 cells): No detectable cell inhibition
- Effect on cell proliferation (NR8383 cells): No detectable cell inhibition

Molecule: CCCCC[C@H](O)CC[C@@H]1[C@H]2Cc3cccc(OCC(=O)OC(CCC)CCC)c3C[C@H]2C[C@H]1O [4C7-TR]
- esterase mediated conversion rate compared with other compounds (esterase): slower conversion rate than the linear compound C8-TR

Molecule: CCCCCCCCOC(=O)COc1cccc2c1C[C@H]1C[C@@H](O)[C@H](CC[C@@H](O)CCCCC)[C@H]1C2 [C8-TR, treprostinil octyl ester]
- Effect on cell proliferation: concentration with detectable inhibition (CHO-K1 cells): 25 µM
- inhibition of cell proliferation at the highest concentration (CHO-K1 cells): showed inhibition of cell proliferation
- inhibition of cell proliferation at the highest concentration (NR8383 cells): showed some inhibition of cell proliferation

Molecule: CCCCCC(O)CCC1C(O)CC2Cc3c(cccc3OCC(=O)OC(CCC)CCCC)CC21 (stereo not shown) [4C8-TR]
- esterase mediated conversion rate compared with other compounds (esterase): slower conversion rate than the linear compound C8-TR; also recorded: slower conversion rate than the symmetrical compounds

Molecule: CCCCC[C@H](O)CC[C@@H]1[C@H]2Cc3cccc(OCC(=O)OCCC)c3C[C@H]2C[C@H]1O [C3-TR]
- Effect on cell proliferation: concentration with detectable inhibition (CHO-K1 cells): No detectable cell inhibition
- Effect on cell proliferation (NR8383 cells): No detectable cell inhibition

Molecule: CCCCCCOC(=O)COc1cccc2c1C[C@H]1C[C@@H](O)[C@H](CC[C@@H](O)CCCCC)[C@H]1C2 [C6-TR]
- Effect on cell proliferation: concentration with detectable inhibition (CHO-K1 cells): No detectable cell inhibition
- Effect on cell proliferation (NR8383 cells): No detectable cell inhibition

Molecule: CCCCCC[C@@H](C)OC(=O)COc1cccc2c1C[C@H]1C[C@@H](O)[C@H](CC[C@@H](O)CCCCC)[C@H]1C2 [(R)-2C8-TR]
- esterase mediated conversion rate compared with other compounds (esterase): no significant difference between the conversion rates of R and S isomers

Molecule: CCCCC[C@H](O)CC[C@@H]1[C@H]2Cc3cccc(OCC(=O)OC(CCCC)CCCC)c3C[C@H]2C[C@H]1O [5C9-TR, 5-nonanyl treprostinil]
- esterase mediated conversion rate compared with other compounds (esterase): slower conversion rate than the linear compound C8-TR
- esterase mediated conversion rate compared with other compounds (esterase; listed as 5-nonanyl-TR): slower conversion rate than linear C8-TR
- change of potency with incubation time / release profile (EP2 prostanoid receptor; dose response curves at 0.5 to 8 hr incubation): increases with incubation time; also recorded: delayed release profile
- ranking of activity of the treprostinil compounds (EP2 prostanoid receptor; unformulated compounds, 10 μM and 5 μM, FIG. 21): C12-TR>C14-TR>5-nonanyl-TR>C16-TR

Molecule: CCCCCC[C@H](C)OC(=O)COc1cccc2c1C[C@H]1C[C@@H](O)[C@H](CC[C@@H](O)CCCCC)[C@H]1C2 [(S)-2C8-TR]
- esterase mediated conversion rate compared with other compounds (esterase): no significant difference between the conversion rates of R and S isomers

Molecule: CCCCC[C@H](O)CC[C@@H]1[C@H]2Cc3cccc(OCC(=O)OCCCC)c3C[C@H]2C[C@H]1O [C4-TR]
- Effect on cell proliferation: concentration with detectable inhibition (CHO-K1 cells): No detectable cell inhibition
- Effect on cell proliferation (NR8383 cells): No detectable cell inhibition

Molecule: treprostinil decyl ester [C10-TR]
- polydispersity (% PD) [1]: around 15 % PD
- duration of cAMP levels (EP2 prostanoid receptor; 5 μM, FIG. 4 and FIG. 5): sustained significantly longer than free treprostinil
- cAMP levels compared with free treprostinil (EP2 prostanoid receptor; 10 μM, FIG. 3A): equivalent to free treprostinil
- time for which cAMP level was sustained (EP2 prostanoid receptor; 10 μM, FIG. 3A): at least 6 hours
- cAMP response compared with free treprostinil (EP2 prostanoid receptor; compositions, 5 μM, FIG. 4): greater than or equivalent to the response induced by free treprostinil
- cAMP response levels of unformulated compounds (EP2 prostanoid receptor; unformulated alkyl esters, 5 μM, FIG. 5): equivalent to free treprostinil

Source: US20170049739A1, “PROSTACYCLIN COMPOUNDS, COMPOSITIONS AND METHODS OF USE THEREOF” (INSMED INCORPORATED, priority 2013, published 2017)
